Settings: 100 kPa, Liquid; for mass density: Vibrating tube method; for viscosity: Concentric cylinders viscometry; for electrical conductivity: Frequency=0.0006 MHz, Alternating current cell with electrodes

CC[N+](C)(C)CCCO.O=S(=O)([N-]S(=O)(=O)C(F)(F)F)C(F)(F)F
Settings	electrical conductivity [S/m]	mass density [kg/m3]	viscosity [mPa·s]
317.15 K	–	1446.8	–
318.15 K	0.309	1446	60.9
319.15 K	–	1445.1	–
320.15 K	–	1444.2	–
321.15 K	–	1443.4	–
322.15 K	–	1442.5	–
323.15 K	0.371	1441.6	49.5
324.15 K	–	1440.8	–
325.15 K	–	1439.9	–
326.15 K	–	1439	–
327.15 K	–	1438.2	–
328.15 K	–	1437.3	40.8
329.15 K	–	1436.4	–
330.15 K	–	1435.6	–
331.15 K	–	1434.7	–
332.15 K	–	1433.9	–
333.15 K	–	1433	34.5
334.15 K	–	1432.1	–
335.16 K	–	1431.3	–
336.15 K	–	1430.4	–
337.15 K	–	1429.6	–
338.15 K	–	1428.7	28.8
339.15 K	–	1427.8	–
340.15 K	–	1427	–
341.15 K	–	1426.1	–
342.15 K	–	1425.3	–
343.15 K	–	1424.4	24.6
344.15 K	–	1423.6	–
345.15 K	–	1422.7	–
346.15 K	–	1421.9	–
347.15 K	–	1421	–
348.15 K	–	1420.1	21.2
349.15 K	–	1419.3	–
350.15 K	–	1418.4	–
351.15 K	–	1417.6	–
352.15 K	–	1416.7	–
353.15 K	–	1415.9	18.7
354.15 K	–	1415	–
355.15 K	–	1414.2	–
356.15 K	–	1413.3	–
357.15 K	–	1412.5	–
358.15 K	–	1411.7	16.2
359.15 K	–	1410.8	–
360.15 K	–	1410	–
361.15 K	–	1409.1	–
362.16 K	–	1408.3	–
363.15 K	–	1407.4	14.3

Source: the NIST ThermoML archive (doi:10.1021/acs.jced.9b00442)
